# Assay results: ChEMBL document CHEMBL2177072, “Design and synthesis of β-site amyloid precursor protein cleaving enzyme (BACE1) inhibitors with in vivo brain reduction of β-amyloid peptides” (J Med Chem, 2012)
# Calls of active or inactive are those of the source. No cut-off for these calls is given here.
# Legend:
# Beta-secretase 1 [1] = target: T1, Beta-secretase 1 (Homo sapiens, UniProt P56817); assay type: cell-based, SH-SY5Y
# Beta-secretase 1 [2] = target: T1, Beta-secretase 1
# Beta-secretase 2 = target: T2, Beta-secretase 2 (Homo sapiens, UniProt Q9Y5Z0)
# T2 sequence (Q9Y5Z0 whole entry): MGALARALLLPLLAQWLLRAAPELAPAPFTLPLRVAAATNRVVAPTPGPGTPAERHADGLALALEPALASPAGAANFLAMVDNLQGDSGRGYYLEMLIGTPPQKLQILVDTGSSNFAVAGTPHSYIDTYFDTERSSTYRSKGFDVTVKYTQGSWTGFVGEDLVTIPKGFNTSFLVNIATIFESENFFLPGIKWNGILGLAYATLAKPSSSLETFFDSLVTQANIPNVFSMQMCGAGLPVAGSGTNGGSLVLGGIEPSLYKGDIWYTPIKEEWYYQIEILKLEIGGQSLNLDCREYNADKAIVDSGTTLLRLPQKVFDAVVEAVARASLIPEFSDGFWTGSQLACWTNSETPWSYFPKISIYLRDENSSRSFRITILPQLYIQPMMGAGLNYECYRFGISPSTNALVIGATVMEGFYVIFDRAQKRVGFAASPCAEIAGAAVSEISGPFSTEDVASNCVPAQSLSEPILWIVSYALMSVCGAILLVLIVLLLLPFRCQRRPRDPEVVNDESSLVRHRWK
# Beta-secretase 1 [3] = target: Beta-secretase 1 (Mus musculus, UniProt P56818)
# Description: Inhibition of BACE1-mediated amyloid beta 40 release in C57/BL6 mouse primary cortical neurons after overnight incubation by ELISA
# physchem [4] = assay: physchem
# Description: Lipophilicity, log D of the compound by RP-HPLC analysis
# in vitro [5] = conditions: rat, hepatocytes
# in vitro [6] = conditions: human, Caco-2
# Description: Apparent permeability from apical to basal side of human Caco2 cells at 10 uM after 60 mins by LC/MS analysis
# physchem [7] = assay: physchem; remark: listed apart in the source
# [8] = Ratio of free drug concentration in brain to free drug concentration in plasma in C57BL/6 mouse at 80 umol/kg, po at […]; assay type: ADME, organism-based
# Brain [9] = assay: Free drug concentration in C57BL/6 mouse brain at 80 umol/kg, po at […]; assay type: ADME, organism-based; conditions: in vivo
# Plasma [10] = assay: Free drug concentration in C57BL/6 mouse plasma at 80 umol/kg, po at […]; assay type: ADME, organism-based; conditions: in vivo
# Mus musculus [11] = assay: Antialzheimer activity in C57BL/6 mouse assessed as reduction in sAPPbeta level in brain at 80 umol/kg, po; assay type: functional, organism-based
# Mus musculus [12] = assay: Antialzheimer activity in C57BL/6 mouse assessed as reduction in amyloid beta 42 level in brain at 80 umol/kg, po; assay type: functional, organism-based
# [13] = Fraction unbound in C57BL/6 mouse brain at 80 umol/kg, po; assay type: ADME, organism-based
# [14] = Fraction unbound in C57BL/6 mouse plasma at 80 umol/kg, po; assay type: ADME, organism-based
# Mus musculus [15] = assay: Antialzheimer activity in C57BL/6 mouse assessed as reduction in amyloid beta 40 level in brain at 80 umol/kg, po at […] by ELISA relative to control; assay type: functional; parameters: scale not given: the % may be the effect or the level left
# in vivo [16] = conditions: mouse, po
# Description: Half life in po dosed mouse
# in vivo [17] = conditions: mouse, po; remark: listed apart in the source
# Description: Oral bioavailability in mouse
# [18] = target: Voltage-gated inwardly rectifying potassium channel KCNH2 (Homo sapiens, UniProt Q12809)
# Description: Inhibition of human ERG expressed in CHO cells by IonWorks assay
# in vitro [19] = conditions: human, Caco-2; remark: listed apart in the source
# Description: Efflux ratio of apparent permeability from basal to apical to apical to basal side of human Caco2 cells at 10 uM after 60 mins by LC/MS analysis
# Brain [20] = assay: Free drug concentration in C57BL/6 mouse brain at 300 umol/kg, po at […]; assay type: ADME, organism-based; conditions: in vivo
# Plasma [21] = assay: Free drug concentration in C57BL/6 mouse plasma at 300 umol/kg, po at […]; assay type: ADME, organism-based; conditions: in vivo
# Mus musculus [22] = species on record: Mus musculus; assay: Antialzheimer activity in C57BL/6 mouse assessed as unbound brain concentration required for 20% reduction in amyloid beta 40 level in brain at 1.5 by ELISA; assay type: functional
# Mus musculus [23] = assay: Antialzheimer activity in C57BL/6 mouse assessed as reduction in sAPPbeta level in brain at 300 umol/kg, po; assay type: functional, organism-based
# Mus musculus [24] = assay: Antialzheimer activity in C57BL/6 mouse assessed as reduction in amyloid beta 42 level in brain at 300 umol/kg, po; assay type: functional, organism-based
# [25] = Fraction unbound in C57BL/6 mouse brain at 300 umol/kg, po; assay type: ADME, organism-based
# [26] = Fraction unbound in C57BL/6 mouse plasma at 300 umol/kg, po; assay type: ADME, organism-based
# Mus musculus [27] = assay: Antialzheimer activity in C57BL/6 mouse assessed as reduction in amyloid beta 40 level in brain at 300 umol/kg, po at […] by ELISA relative to control; assay type: functional; parameters: scale not given: the % may be the effect or the level left
# Chain of Beta-secretase 1 (Mus musculus, UniProt P56818) (P56818 whole entry): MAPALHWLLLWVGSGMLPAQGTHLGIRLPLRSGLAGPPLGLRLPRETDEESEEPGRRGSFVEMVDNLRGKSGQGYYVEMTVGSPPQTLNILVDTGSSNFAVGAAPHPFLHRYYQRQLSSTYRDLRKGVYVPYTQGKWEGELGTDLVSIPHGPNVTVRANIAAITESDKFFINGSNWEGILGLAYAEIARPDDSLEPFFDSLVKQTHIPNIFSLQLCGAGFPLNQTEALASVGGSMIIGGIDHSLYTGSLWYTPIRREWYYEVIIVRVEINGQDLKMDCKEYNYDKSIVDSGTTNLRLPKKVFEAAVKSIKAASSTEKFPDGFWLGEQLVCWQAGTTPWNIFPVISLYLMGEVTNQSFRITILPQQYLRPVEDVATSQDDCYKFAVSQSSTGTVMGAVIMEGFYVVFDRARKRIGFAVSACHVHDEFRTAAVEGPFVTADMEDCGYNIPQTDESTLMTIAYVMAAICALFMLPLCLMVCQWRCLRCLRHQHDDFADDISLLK
# T1 sequence (P56817 whole entry): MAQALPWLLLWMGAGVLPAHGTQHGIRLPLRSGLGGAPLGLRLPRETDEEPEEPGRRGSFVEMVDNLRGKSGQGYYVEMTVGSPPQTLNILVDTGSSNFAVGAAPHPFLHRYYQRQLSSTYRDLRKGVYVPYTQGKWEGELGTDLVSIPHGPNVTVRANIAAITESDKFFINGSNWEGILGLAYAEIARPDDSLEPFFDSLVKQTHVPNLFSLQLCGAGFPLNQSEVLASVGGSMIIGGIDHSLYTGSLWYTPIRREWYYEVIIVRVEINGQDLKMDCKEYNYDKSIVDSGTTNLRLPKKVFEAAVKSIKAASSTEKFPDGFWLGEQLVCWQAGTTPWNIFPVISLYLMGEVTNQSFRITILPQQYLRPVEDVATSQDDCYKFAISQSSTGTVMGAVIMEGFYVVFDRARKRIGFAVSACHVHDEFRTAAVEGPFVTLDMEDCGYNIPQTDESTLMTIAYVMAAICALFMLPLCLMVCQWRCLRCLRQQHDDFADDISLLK
# Chain of Voltage-gated inwardly rectifying potassium channel KCNH2 (Q12809 whole entry): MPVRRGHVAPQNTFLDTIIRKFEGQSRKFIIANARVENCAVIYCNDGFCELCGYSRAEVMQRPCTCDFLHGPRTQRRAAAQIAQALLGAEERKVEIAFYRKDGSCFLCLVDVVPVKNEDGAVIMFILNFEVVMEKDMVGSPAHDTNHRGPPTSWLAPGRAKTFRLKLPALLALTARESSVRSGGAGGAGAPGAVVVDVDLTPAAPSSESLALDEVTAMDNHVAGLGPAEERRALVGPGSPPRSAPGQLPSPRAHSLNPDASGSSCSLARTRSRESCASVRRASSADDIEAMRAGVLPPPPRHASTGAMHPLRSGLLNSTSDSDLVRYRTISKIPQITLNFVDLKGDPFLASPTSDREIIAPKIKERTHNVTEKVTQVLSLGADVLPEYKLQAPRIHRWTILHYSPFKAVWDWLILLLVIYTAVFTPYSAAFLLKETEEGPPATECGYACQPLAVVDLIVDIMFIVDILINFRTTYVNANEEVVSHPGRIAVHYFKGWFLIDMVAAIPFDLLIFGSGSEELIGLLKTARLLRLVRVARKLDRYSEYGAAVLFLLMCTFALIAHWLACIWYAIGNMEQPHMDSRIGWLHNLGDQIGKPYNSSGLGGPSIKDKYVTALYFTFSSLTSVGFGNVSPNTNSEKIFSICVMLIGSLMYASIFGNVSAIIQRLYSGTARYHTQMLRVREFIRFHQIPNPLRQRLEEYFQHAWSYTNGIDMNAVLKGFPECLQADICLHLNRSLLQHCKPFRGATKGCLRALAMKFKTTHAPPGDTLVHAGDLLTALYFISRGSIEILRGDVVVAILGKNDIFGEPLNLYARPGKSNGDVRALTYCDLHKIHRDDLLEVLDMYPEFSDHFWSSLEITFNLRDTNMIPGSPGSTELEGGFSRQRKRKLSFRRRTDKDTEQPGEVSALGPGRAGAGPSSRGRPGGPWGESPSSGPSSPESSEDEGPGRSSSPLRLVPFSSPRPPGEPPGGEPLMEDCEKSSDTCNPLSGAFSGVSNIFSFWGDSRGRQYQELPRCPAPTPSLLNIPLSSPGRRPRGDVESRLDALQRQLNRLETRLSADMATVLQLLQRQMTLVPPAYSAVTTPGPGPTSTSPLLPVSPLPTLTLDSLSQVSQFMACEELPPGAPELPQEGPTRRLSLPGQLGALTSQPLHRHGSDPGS
compound,measurement,setting,value
CC#Cc1cncc(-c2cccc(C3(c4ccnc(C(F)F)c4)N=C(N)c4c(F)cccc43)c2)c1 (stereo not given),IC50,Beta-secretase 1 [1],2.97 nM
same,IC50,Beta-secretase 1 [2],6.49 nM
COc1cc(C2(c3cccc(-c4cncnc4)c3)N=C(N)c3c(F)cccc32)ccn1 (stereo not given),IC50,Beta-secretase 1 [1],21.5 nM
CCn1cc([C@]2(c3cccc(C#CC4CC4)c3)N=C(N)c3c(F)cccc32)cc(C)c1=O,IC50,Beta-secretase 1 [1],0.76 nM
same,IC50,Beta-secretase 1 [2],6.08 nM
same,Ki,Beta-secretase 2,78 nM
same,IC50,Beta-secretase 1 [3],3.4 nM
Cc1cc(C2(c3cccc(-c4cncnc4)c3)N=C(N)c3c(F)cccc32)cc(C)n1 (stereo not given),IC50,Beta-secretase 1 [1],10.7 nM
same,IC50,Beta-secretase 1 [2],1380 nM
COc1c(C)cc(C2(c3cccc(-c4cncnc4)c3)N=C(N)c3c(F)cccc32)cc1C#N (stereo not given),IC50,Beta-secretase 1 [1],3.4 nM
same,logD,physchem [4],3.1
same,hepatocyte CLint,in vitro [5],30.9 µL/min/1e6 cells
same,"Papp A→B at 1 h, 10 µM",in vitro [6],23 ×10⁻⁶ cm/s
CCn1cc([C@]2(c3cccc(NC(=O)c4ccc(Cl)cn4)c3)N=C(N)c3c(F)cccc32)cc(C)c1=O,IC50,Beta-secretase 1 [1],0.15 nM
same,IC50,Beta-secretase 1 [2],2.49 nM
CC#Cc1cncc(-c2cccc([C@@]3(c4cc(C)c(=O)n(CC)c4)N=C(N)c4c(F)cc(F)cc43)c2)c1,IC50,Beta-secretase 1 [1],0.38 nM
same,IC50,Beta-secretase 1 [2],2.59 nM
NC1=NC(c2ccnc(C(F)(F)F)c2)(c2ccc(F)c(-c3cncnc3)c2)c2cccc(F)c21 (racemic),logD,physchem [4],3
same,pKa,physchem [7],6.4
same,hepatocyte CLint,in vitro [5],6.9 µL/min/1e6 cells
same,"Papp A→B at 1 h, 10 µM",in vitro [6],25 ×10⁻⁶ cm/s
NC1=NC(c2ccncc2)(c2cccc(-c3cncnc3)c2)c2cccc(F)c21 (racemic),IC50,Beta-secretase 1 [1],11.4 nM
same,IC50,Beta-secretase 1 [2],158 nM
NC1=NC(c2cccc(-c3cncnc3)c2)(c2ccnc(C(F)F)c2)c2cccc(F)c21 (racemic),logD,physchem [4],2
same,pKa,physchem [7],6.8
same,hepatocyte CLint,in vitro [5],27.5 µL/min/1e6 cells
NC1=N[C@@](c2cccc(-c3cncnc3)c2)(c2ccnc(C(F)F)c2)c2cccc(F)c21 [AZD-3839],"K(p,uu,brain)",[8],0.7
same,Drug uptake(free),Brain [9],119 nM
same,Cp(f),Plasma [10],170 nM
same,Activity,Mus musculus [11],Active
same,Activity,Mus musculus [12],Active
same,fraction unbound,[13],0.079
same,fraction unbound,[14],0.027
same,Activity,Mus musculus [15],31%
same,Ki,Beta-secretase 2,370 nM
same,IC50,Beta-secretase 1 [3],51 nM
same,half-life,in vivo [16],1.5 h
same,bioavailability,in vivo [17],73%
same,logD,physchem [4],2
same,pKa,physchem [7],7.1
same,hepatocyte CLint,in vitro [5],20.9 µL/min/1e6 cells
NC1=N[C@@](c2cccc(-c3cncnc3)c2)(c2ccnc(C(F)F)c2)c2cc(F)cc(F)c21,IC50,Beta-secretase 1 [1],8.64 nM
same,IC50,Beta-secretase 1 [2],36.2 nM
same,Ki,Beta-secretase 2,770 nM
same,IC50,Beta-secretase 1 [3],53 nM
COc1c(C)cc(C2(c3cccc(-c4cncnc4)c3)N=C(N)c3c(F)cccc32)nc1C (stereo not given),IC50,Beta-secretase 1 [1],2.92 nM
same,Ki,Beta-secretase 2,1700 nM
same,IC50,Beta-secretase 1 [3],40 nM
N#Cc1cncc(-c2cccc(C3(c4ccnc(C(F)(F)F)c4)N=C(N)c4c(F)cccc43)c2)c1 (stereo not given),IC50,Beta-secretase 1 [1],29.9 nM
same,IC50,Beta-secretase 1 [2],253 nM
same,IC50,[18],1700 nM
same,logD,physchem [4],3.7
same,hepatocyte CLint,in vitro [5],5.2 µL/min/1e6 cells
same,"efflux ratio at 1 h, 10 µM",in vitro [19],0.8
same,"Papp A→B at 1 h, 10 µM",in vitro [6],16 ×10⁻⁶ cm/s
NC1=NC(c2cccc(-c3cncnc3)c2)(c2ccnc(C(F)(F)F)c2)c2ccccc21 (stereo not given),IC50,Beta-secretase 1 [1],2.1 nM
same,IC50,Beta-secretase 1 [2],134 nM
NC1=NC(c2ccncc2)(c2cccc(-c3cncc(F)c3)c2)c2cccc(F)c21 (stereo not given),IC50,Beta-secretase 1 [1],25.6 nM
same,IC50,Beta-secretase 1 [2],137 nM
Cc1cc(C2(c3cccc(-c4cncnc4)c3)N=C(N)c3c(F)cccc32)cn(C)c1=O (stereo not given),IC50,Beta-secretase 1 [1],11.4 nM
same,IC50,Beta-secretase 1 [2],60.8 nM
same,Ki,Beta-secretase 2,740 nM
same,IC50,Beta-secretase 1 [3],30 nM
NC1=NC(c2ccncc2)(c2cccc(-c3cncnc3)c2)c2ccccc21 (stereo not given),IC50,Beta-secretase 1 [1],90.3 nM
same,IC50,[18],16000 nM
same,logD,physchem [4],0.7
same,pKa,physchem [7],8.4
same,hepatocyte CLint,in vitro [5],11.7 µL/min/1e6 cells
same,"efflux ratio at 1 h, 10 µM",in vitro [19],12
same,"Papp A→B at 1 h, 10 µM",in vitro [6],3.4 ×10⁻⁶ cm/s
NC1=N[C@](c2ccncc2)(c2cccc(-c3cncnc3)c2)c2cccc(F)c21,IC50,Beta-secretase 1 [1],8.25 nM
same,IC50,Beta-secretase 1 [2],124 nM
same,Ki,Beta-secretase 2,790 nM
same,IC50,Beta-secretase 1 [3],68 nM
NC1=N[C@](c2ccnc(C(F)(F)F)c2)(c2ccc(F)c(-c3cncnc3)c2)c2cccc(F)c21,Drug uptake(free),Brain [20],406 nM
same,Cp(f),Plasma [21],795 nM
same,Activity,Mus musculus [22],114 nM
same,Activity,Mus musculus [23],Active
same,Activity,Mus musculus [24],Active
same,fraction unbound,[25],0.025
same,fraction unbound,[26],0.044
same,Activity,Mus musculus [27],50%
same,IC50,Beta-secretase 1 [3],204 nM
same,logD,physchem [4],3
same,hepatocyte CLint,in vitro [5],10 µL/min/1e6 cells
same,"Papp A→B at 1 h, 10 µM",in vitro [6],30 ×10⁻⁶ cm/s
NC1=NC(c2cccc(-c3cncnc3)c2)(c2ccnc(C(F)(F)F)c2)c2cccc(F)c21 (stereo not given),IC50,Beta-secretase 1 [1],43.1 nM
same,IC50,Beta-secretase 1 [3],436 nM
CCn1cc(C2(c3cccc(-c4cncc(F)c4)c3)N=C(N)c3c(F)cccc32)cc(C)c1=O (stereo not given),IC50,Beta-secretase 1 [1],3.98 nM
COc1ccc(C2(c3cccc(-c4cncnc4)c3)N=C(N)c3c(F)cccc32)cc1 (stereo not given),IC50,Beta-secretase 1 [1],12.5 nM
same,IC50,Beta-secretase 1 [2],135 nM
CCn1cc(C2(c3cccc(-c4cncnc4)c3)N=C(N)c3c(F)cccc32)cc(C)c1=O (stereo not given),IC50,Beta-secretase 1 [1],9.09 nM
same,IC50,Beta-secretase 1 [2],15.5 nM
CCn1cc(C2(c3cccc(-c4cncc(C#N)c4)c3)N=C(N)c3c(F)cccc32)cc(C)c1=O (stereo not given),IC50,Beta-secretase 1 [1],1.84 nM
same,IC50,Beta-secretase 1 [2],8.26 nM
